Results as given in patent US20210269451A1, “PYRIDINYL HETEROCYCLYL COMPOUNDS FOR THE TREATMENT OF AUTOIMMUNE DISEASE” (Hoffmann-La Roche Inc., priority 2018, published 2021).

How the values were obtained:
[1] = target: T1, CYP2D6 (Homo sapiens, UniProt P10635); assay: CYP inhibition assay in human liver microsome; type: in vitro ADME; conditions: human liver microsomes, probe dextromethorphan, dextromethorphan substrate, percentage inhibition <0: not or weak inhibitor, read-out: CYP 2D6 inhibition %@10 μM
T1 construct: tissue BD-Gentest 452117; host or cells: human liver microsomes
Method: The compounds would be desirable to have minimal DDI liabilities. Therefore, the effects of compounds of formula (I) or (Ia) on CYP2D6 are determined.
This is a high throughput screening assay used for assessment of reversible inhibition of CYP2D6 activity of test compounds in human liver microsome (HLM) in early discovery stage.
10 mM DMSO stock solutions of test compounds were diluted in DMSO to generate 2 mM intermediate stock solution. 250 nL of intermediate stock solution were transferred in duplicate into 3 separate 384 well microtitre plates (assay-ready plates). A mixture of HLM and each substrate was made up. 45 μL of HLM substrate mix was then transferred to each well of an assay ready plate and mixed. The negative (solvent) and positive control (standard inhibitor for CYP 2D6) were included in each assay ready plate. The assay ready plate was warmed to 37° C. in an incubator over 10 minutes. 5 μL pre-warmed NADPH regenerating system was added to each incubation well to start the reaction. Final incubation volume was 50 μL. The assay plate then was placed back in the 37° C. incubator. After 10 minutes incubation, incubates were quenched by addition of 50 μL 100% acetonitrile containing internal standards (20 ng/mL D3-Dextrorphan). The supernatants were collected for RapidFire/MS/MS analysis.
RapidFire online solid phase extraction/sample injection system (Agilent) coupled with API4000 triple quadrupole mass spectrometer (AB Sciex) were used for sample analysis. The mobile phase composed of acetonitrile and water supplemented with 0.1% formic acid. A C4 solid phase extraction cartridge is used for sample separation. MS detection is achieved in positive ion MRM mode.
Data analysis Peak areas for substrate, metabolite and internal standard are determined using the RapidFire integrator software (version 3.6.12009.12296). Peak area ratios (PAR) of metabolite and internal standard (stable-labelled metabolite) are then calculated. The measurement window for each experiment is then defined:
PAR (0% activity), average PAR for all incubations containing concentrated inhibitor; Par (100% activity), average PAR for all incubations containing no inhibitor (DMSO controls);
% Activity (test inhibitor)=
=[PAR(test inhibitor)-PAR(0% activity)]/[PAR(100% activity)-PAR(0% activity)];
% Inhibition (test inhibitor)=100-% Activity (test inhibitor).

[2] = target: T2, hTLR9 (Homo sapiens, UniProt Q9NR96); assay: HEK293-Blue-hTLR-9 cells assay; type: cell-based; parameters: host or cells: HEK293-Blue-hTLR-9 (HEK293); conditions: HEK293-Blue-hTLR9 cells, ODN2006 stimulation, 20 hrs, SEAP reporter; read-out: HEK/hTLR9 IC50
T2 sequence (Q9NR96 26-1032): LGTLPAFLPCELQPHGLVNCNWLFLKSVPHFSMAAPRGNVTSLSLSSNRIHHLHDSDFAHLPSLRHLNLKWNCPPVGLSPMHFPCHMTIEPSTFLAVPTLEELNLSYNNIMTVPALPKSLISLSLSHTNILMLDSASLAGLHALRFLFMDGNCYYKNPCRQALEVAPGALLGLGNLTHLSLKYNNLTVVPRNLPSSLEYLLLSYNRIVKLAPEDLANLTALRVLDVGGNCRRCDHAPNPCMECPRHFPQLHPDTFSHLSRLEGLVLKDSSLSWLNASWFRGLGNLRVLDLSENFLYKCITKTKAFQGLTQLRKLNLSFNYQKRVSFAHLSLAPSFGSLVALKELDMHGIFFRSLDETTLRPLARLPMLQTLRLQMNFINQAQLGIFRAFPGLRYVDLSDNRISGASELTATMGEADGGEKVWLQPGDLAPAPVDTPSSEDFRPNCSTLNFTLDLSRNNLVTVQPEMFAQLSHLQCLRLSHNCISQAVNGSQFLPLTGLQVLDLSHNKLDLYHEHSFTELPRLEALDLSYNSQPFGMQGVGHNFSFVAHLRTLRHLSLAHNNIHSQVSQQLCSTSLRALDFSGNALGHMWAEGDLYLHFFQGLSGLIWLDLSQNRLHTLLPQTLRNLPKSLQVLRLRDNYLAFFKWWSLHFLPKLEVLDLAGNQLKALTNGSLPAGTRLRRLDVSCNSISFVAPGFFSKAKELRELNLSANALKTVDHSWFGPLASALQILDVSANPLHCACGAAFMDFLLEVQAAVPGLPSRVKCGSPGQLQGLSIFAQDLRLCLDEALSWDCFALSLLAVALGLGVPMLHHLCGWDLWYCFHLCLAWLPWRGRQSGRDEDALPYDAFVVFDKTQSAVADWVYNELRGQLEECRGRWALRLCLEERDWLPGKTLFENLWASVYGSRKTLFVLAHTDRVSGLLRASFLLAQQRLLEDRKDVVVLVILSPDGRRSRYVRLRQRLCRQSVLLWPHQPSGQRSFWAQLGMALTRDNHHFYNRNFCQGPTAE
Method: The following tests were carried out in order to determine the activity of the compounds of formula (I) and (Ia) in HEK293-Blue-hTLR-7/8/9 cells assay.
HEK293-Blue-hTLR-9 cells assay:
A stable HEK293-Blue-hTLR-9 cell line was purchased from InvivoGen (Cat. #: hkb-htlr9, San Diego, Calif., USA). These cells were originally designed for studying the stimulation of human TLR9 by monitoring the activation of NE-KB. A SEAP (secreted embryonic alkaline phosphatase) reporter gene was placed under the control of the IFN-β minimal promoter fused to five NE-κB and AP-1-binding sites. The SEAP was induced by activating NE-κB and AP-1 via stimulating HEK-Blue hTLR9 cells with TLR9 ligands. Therefore the reporter expression was declined by TLR9 antagonist under the stimulation of a ligand, such as ODN2006 (Cat. #: tlrl-2006-1, Invivogen, San Diego, Calif., USA), for incubation of 20 hrs. The cell culture supernatant SEAP reporter activity was determined using QUANTI-Blue™ kit (Cat. #: rep-qb1, Invivogen, San Diego, Calif., USA) at a wavelength of 640 nm, a detection medium that turns purple or blue in the presence of alkaline phosphatase.
HEK293-Blue-hTLR9 cells were incubated at a density of 250,000˜450,000 cells/mL in a volume of 170 μL in a 96-well plate in Dulbecco's Modified Eagle's medium (DMEM) containing 4.5 g/L glucose, 50 U/mL penicillin, […], […], 2 mM L-glutamine, 10% (v/v) heat-inactivated fetal bovine serum with addition of 20 μL test compound in a serial dilution in the presence of final DMSO at 1% and 10 μL of 20 uM ODN2006 in above DMEM, perform incubation under 37° C. in a CO2 incubator for 20 hrs. Then 20 μL of the supernatant from each well was incubated with 180 μL Quanti-blue substrate solution at 37° C. for 2 h and the absorbance was read at 620˜655 nm using a spectrophotometer. The signaling pathway that TLR9 activation leads to downstream NE-κB activation has been widely accepted, and therefore similar reporter assay was modified for evaluating TLR9 antagonist.

T1 sequence (P10635 whole entry): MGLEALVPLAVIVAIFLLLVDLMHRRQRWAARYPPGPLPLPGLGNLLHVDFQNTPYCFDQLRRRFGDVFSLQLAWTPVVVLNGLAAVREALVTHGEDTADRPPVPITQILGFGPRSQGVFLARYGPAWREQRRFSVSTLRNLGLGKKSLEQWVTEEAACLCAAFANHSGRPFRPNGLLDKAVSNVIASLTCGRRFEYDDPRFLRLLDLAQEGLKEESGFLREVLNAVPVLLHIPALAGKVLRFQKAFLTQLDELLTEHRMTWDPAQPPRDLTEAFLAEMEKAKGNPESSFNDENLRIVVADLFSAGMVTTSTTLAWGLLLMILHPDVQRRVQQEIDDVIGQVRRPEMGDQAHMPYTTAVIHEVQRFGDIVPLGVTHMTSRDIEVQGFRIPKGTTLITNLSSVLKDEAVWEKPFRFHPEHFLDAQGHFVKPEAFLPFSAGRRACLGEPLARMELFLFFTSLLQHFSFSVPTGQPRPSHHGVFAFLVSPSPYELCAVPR

Row | Structure (SMILES) | inhibition at 10 min, 10 μM [1] [%] | IC50 [2] [nM]
1 | Cc1cc(N2CCC23CN(C[C@H]2CN(c4ccc(C#N)c5ncccc45)C[C@@H](C)O2)C3)ccn1 [Example 15] | 4 | 71
2 | Cc1cc(N2CCOC3(CN(C[C@H]4CN(c5ccc(C#N)c6ncccc56)C[C@@H](C)O4)C3)C2)ccn1 [Example 16] | 5 | 38
3 | Cc1cc(N2CC(NC[C@H]3CN(c4ccc(C#N)c5ncccc45)C[C@@H](C)O3)C2)cc(CO)n1 [Example 30] | 8.5 | 88
4 | Cc1cc(N2CCC[C@H](N(C)C[C@H]3CN(c4ccc(C#N)c5ncccc45)C[C@@H](C)O3)C2)cc(CO)n1 [Example 38] | 0 | 39
5 | Cc1cc(N2CCN(C[C@H]3CN(c4ccc(C#N)c5ncccc45)C[C@@H](C)O3)CC2)cc(N)n1 [Example 40, 5-[(2S,6R)-2-[[4-(2-amino-6-methyl-4-pyridyl)piperazin-1-yl]methyl]-6-methyl-morpholin-4-yl]quinoline-8-carbonitrile] | 14.5 | 41
6 | Cc1cc(C2CCN(C[C@H]3CN(c4ccc(C#N)c5ncccc45)C[C@@H](C)O3)CC2)cc(N)n1 [Example 43, 5-[(2S,6R)-2-[[4-(2-amino-6-methyl-4-pyridyl)-1-piperidyl]methyl]-6-methyl-morpholin-4-yl]quinoline-8-carbonitrile] | -13 | 54
7 | C[C@@H]1CN(c2ccc(C#N)c3ncccc23)C[C@H](CN2CCN(c3cc(N)nc(CO)c3)CC2)O1 [Example 45, 5-[(2S,6R)-2-[[4-[2-amino-6-(hydroxymethyl)-4-pyridyl]piperazin-1-yl]methyl]-6-methyl-morpholin-4-yl]quinoline-8-carbonitrile] | -2.5 | 91
8 | Cc1cc(N2CCN(C[C@H]3CN(c4ccc(C#N)c5ncccc45)C[C@@H](C)O3)CC2)cc(CO)n1 [Example 50] | 10.5 | 134
9 | C[C@@H]1CN(c2ccc(C#N)c3ncccc23)C[C@H](CN2CC3(C2)CN(c2ccnc(CO)c2)CCO3)O1 [Example 51] | -15.5 | 35

Other lines, results leading:

Row | inhibition at 10 min, 10 μM [1] [%] | IC50 [2] [nM] | Structure (SMILES)
10 | 19 | < 32 | Cc1cc(N2CCOC3(CN(C[C@H]4CN(c5ccc(C#N)c6ncccc56)C[C@@H](C)O4)C3)C2)cc(C)n1 [Example 14]
11 | 2 | < 32 | C[C@@H]1CN(c2ccc(C#N)c3ncccc23)C[C@H](CN[C@@H]2CCCN(c3ccnc(N)c3)C2)O1 [Example 21, 5-[(2S,6R)-2-[[[(3R)-1-(2-amino-4-pyridyl)-3-piperidyl]amino]methyl]-6-methyl-morpholin-4-yl]quinoline-8-carbonitrile]
12 | 2 | 34 | C[C@@H]1CN(c2ccc(C#N)c3ncccc23)C[C@H](CN[C@H]2CCCN(c3ccnc(N)c3)C2)O1 [Example 22]
13 | -9.5 | < 32 | Cc1cc(N2CCC[C@@H](NC[C@H]3CN(c4ccc(C#N)c5ncccc45)C[C@@H](C)O3)C2)cc(CO)n1 [Example 24]
14 | 8.5 | < 32 | Cc1cc(N2CCC[C@H](NC[C@H]3CN(c4ccc(C#N)c5ncccc45)C[C@@H](C)O3)C2)cc(CO)n1 [Example 25]
15 | -4 | 34 | Cc1cc(N2CCC[C@@H](N(C)C[C@H]3CN(c4ccc(C#N)c5ncccc45)C[C@@H](C)O3)C2)cc(CO)n1 [Example 35]
16 | -0.5 | < 32 | CNc1cc(N2CCN(C[C@H]3CN(c4ccc(C#N)c5ncccc45)C[C@@H](C)O3)CC2)cc(C)n1 [Example 42, 5-[(2R,6S)-2-methyl-6-[[4-[2-methyl-6-(methylamino)-4-pyridyl]piperazin-1-yl]methyl]morpholin-4-yl]quinoline-8-carbonitrile]
17 | 5 | < 32 | Cc1cc(N2CC3(CN(C[C@H]4CN(c5ccc(C#N)c6ncccc56)C[C@@H](C)O4)C3)C2)cc(C(C)O)n1 (stereo partly drawn) [Example 44, 5-[(2S,6R)-2-[[2-[2-(1-hydroxyethyl)-6-methyl-4-pyridyl]-2,6-diazaspiro[3.3]heptan-6-yl]methyl]-6-methyl-morpholin-4-yl]quinoline-8-carbonitrile]
18 | 17 | < 32 | CC(O)c1cc(N2CC3(CN(C[C@H]4CN(c5ccc(C#N)c6ncccc56)C[C@@H](C)O4)C3)C2)ccn1 (stereo partly drawn) [Example 46, 5-[(2S,6R)-2-[[2-[2-(1-hydroxyethyl)-4-pyridyl]-2,6-diazaspiro[3.3]heptan-6-yl]methyl]-6-methyl-morpholin-4-yl]quinoline-8-carbonitrile]
